Biological target: Tyrosine-protein kinase Tec (Homo sapiens) (UniProt P42680)
Assay: Inhibition of TEC (unknown origin)

Chain of Tyrosine-protein kinase Tec (Homo sapiens) (P42680 whole entry, looked up): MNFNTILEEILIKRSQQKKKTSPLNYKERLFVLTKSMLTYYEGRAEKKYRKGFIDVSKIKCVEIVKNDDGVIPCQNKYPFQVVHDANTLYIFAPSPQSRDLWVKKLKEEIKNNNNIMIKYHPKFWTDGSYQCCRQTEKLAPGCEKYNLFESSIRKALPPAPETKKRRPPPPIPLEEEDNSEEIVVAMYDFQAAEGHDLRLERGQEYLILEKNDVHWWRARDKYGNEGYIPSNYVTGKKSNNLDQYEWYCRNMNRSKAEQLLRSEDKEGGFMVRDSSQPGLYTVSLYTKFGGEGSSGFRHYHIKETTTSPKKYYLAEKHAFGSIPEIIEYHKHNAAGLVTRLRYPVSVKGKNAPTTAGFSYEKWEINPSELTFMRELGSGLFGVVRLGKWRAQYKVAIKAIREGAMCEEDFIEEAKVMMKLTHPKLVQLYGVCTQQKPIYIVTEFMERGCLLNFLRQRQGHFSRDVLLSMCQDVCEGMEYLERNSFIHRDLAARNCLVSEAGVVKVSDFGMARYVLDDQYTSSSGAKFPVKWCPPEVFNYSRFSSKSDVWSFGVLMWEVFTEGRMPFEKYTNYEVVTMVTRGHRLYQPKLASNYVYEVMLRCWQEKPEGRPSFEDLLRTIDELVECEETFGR

An IC50 of 1.2 nM was found for `N#CN1CCC[C@@H](n2nc(-c3ccc(Oc4ccc(F)cc4F)cc3)c(C(N)=O)c2N)C1` in this work.

Source: BindingDB's records for PubMed 36324498 (Yangtze University, 2022)
